Experimental data published in US20190365645A1, “DRUG DELIVERY ARTICLES FOR GRAM-LEVEL DOSING” (Massachusetts Institute of Technology, priority 2018, published 2019).
Values belong to the compound of their own block, whether it stands above or below them.

Key:
[1] = In vitro drug release from drug-vinylpolysiloxane pills/articles (simulated gastric fluid or water); format: physicochemical; settings: for in vitro release from drug-VPS pills: SGF (isoniazid and rifampicin in water)
Procedure: Articles with a series of 30 pills were made so that there was 1 gram of doxycycline hyclate in 2 grams of vinylpolysiloxane. Pills were coated with either cellulose acetate butyrate (CAB) or with Eudragit RS PO. A control with no coatings was also made. The articles were immersed in simulated gastric fluid, and the cumulative release of doxycycline hyclate was measured for more than 26 days.
Thickness of coatings was tuned by increasing the spray volume.
Individual pills made of drug-VPS for doxycycline hyclate, isoniazid, ethambutol, pyrazinamide, moxifloxacin were used to evaluate long-term release kinetics in SGF. Pill formulations were incubated in a New Brunswick Innova 44 shaking incubator (Eppendorf) at 37° C. and 200 rpm in 50 mL of SGF for up to 28 days, with solution exchanges at specified time intervals. Drug concentrations were then analyzed using a High-Performance Liquid Chromatography (HPLC). Because of the lack of a validated HPLC method for evaluating isoniazid in SGF, water was used to study differences between isoniazid formulations. Three intact rifampicin devices were fabricated by loading 2 grams of drug into VPS pills. The devices were incubated in 500 mL of nanopure water for up to 26 days in a shaking incubator at 37° C. and 200 rpm, with media exchange at specified time intervals. […] The drug concentrations samples were then measured on an Infinite M200Pro (Tecan) reader (absorbance, 475 nm).
An Agilent 1260 Infinity II HPLC system (Agilent Technologies, Inc.) equipped with a Model 1260 quaternary pump, Model 1260 High Performance autosampler, Model 1260 thermostat, Model 1260 Infinity Thermostatted Column Compartment control module, and Model 1260 diode array detector was utilized. Data processing and analysis was performed using OpenLab CDS ChemStation (Agilent Technologies, Inc.). All solvents used were purchased from Sigma-Aldrich Corporation. For doxycycline hyclate, chromatographic isocratic separation was carried out on an Agilent 4.6×50 mm AdvanceBio RP-mAb SB-C8 analytical column with 3.5 μm particles, maintained at 55° C. The optimized mobile phase consisted of 20 mM dipotassium phosphate buffer and acetonitrile (pH 6 adjusted with triethylamine) [60:40 (v/v)] at a flow rate of 0.85 mL/min over a 4 min run time. The injection volume was 5 μl, and the selected ultraviolet (UV) detection wavelength was 293 nm.

[2] = pig, in vivo
[3] = reason water was used as release medium; cited from earlier work

in vitro release from drug-VPS pills [1]: able to release
Compound: CC[C@@H](CO)NCCN[C@@H](CC)CO [ethambutol]

in vitro release from drug-VPS pills [1]: able to release
Compound: NNC(=O)c1ccncc1 [isoniazid]

in vitro release from drug-VPS pills [1]: able to release
Compound: NC(=O)c1cnccn1 [pyrazinamide]

duration of detectable serum concentrations [2]: for a week
Compound: CO[C@H]1/C=C/O[C@@]2(C)Oc3c(C)c(O)c4c(O)c(c(/C=N/N5CCN(C)CC5)c(O)c4c3C2=O)NC(=O)/C(C)=C\C=C\[C@H](C)[C@H](O)[C@@H](C)[C@@H](O)[C@@H](C)[C@H](OC(C)=O)[C@@H]1C [rifampicin]
stability in acid [3]: rapidly degrades in acid

duration of drug release (cumulative release) ([1]; articles of 30 pills, 1 gram drug in 2 grams vinylpolysiloxane, simulated gastric fluid): more than 26 days
duration drug detectable in serum [2]: at least 28 days
duration of sustained drug release, non-zero concentrations in the blood [2]: at least 7 days
time after which no drug was detectable in serum [2]: 3 ays
time to detectable serum concentrations [2]: ≤ 15 min
Compound: doxycycline hyclate
release kinetic profile ([1]; formulations coated with Eudragit RS 100, SGF): linear kinetic profile with limited burst release
